# Assay results taken from US12448399B2, “Cereblon-based KRAS degrading PROTACs and uses related thereto” (Arvinas Operations, Inc., priority 2023, dated 2025).
# Target: T1, KRas-G12D (Homo sapiens, UniProt P01116, G12D)
# T1 construct: insert the HiBiT tag onto the N-terminus of one or more of the endogenous KRas alleles; host or cells: AsPC-1 HiBiT-KRasG12D knock-in clone (one tagged allele, two untagged KRasG12D alleles)
# Assay: HiBiT Degradation Assay (G12D), AsPC-1 HiBiT-KRasG12D cells, 24 hr
# Format: cell-based
# Conditions: for Dmax: ASPC1, AsPC-1 cells, maximum degradation observed; for DC50: AsPC-1 cells
# How it was run: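 Degradation was read after 24 hr compound exposure (0.5% DMSO, 37° C) by Nano-Glo HiBiT lytic luminescence in AsPC-1 cells carrying a HiBiT tag on one of three KRasG12D alleles. Signal relative to DMSO gave DC50 and Dmax by 4-parameter fit; alamar blue fluorescence monitored cytotoxicity.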
# T1 sequence (P01116 1-188 isoform P01116-2 G12D): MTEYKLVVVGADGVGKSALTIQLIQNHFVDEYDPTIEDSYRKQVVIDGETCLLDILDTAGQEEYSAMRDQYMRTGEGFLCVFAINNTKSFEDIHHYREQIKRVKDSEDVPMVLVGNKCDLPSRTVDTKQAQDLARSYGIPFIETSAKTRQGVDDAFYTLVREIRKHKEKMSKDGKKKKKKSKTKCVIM
SMILES,Dmax [%],DC50 [µM]
"C#Cc1c(F)ccc2cc(O)cc(-c3ncc4c(N5CC6CCC(C5)N6)nc(OCCN5CCC(CC6CCN(CC7CCN(c8ccc9c(c8)CN([C@H]8CCC(=O)NC8=O)C9=O)CC7)CC6)CC5)nc4c3F)c12 [Compound 215, (3S)-3-{5-[4-({4-[(1-{2-[(4-{3,8-diazabicyclo[3.2.1]octan-3-yl}-7-(8-ethynyl-7-fluoro-3-hydroxynaphthalen-1-yl)-8-fluoropyrido[4,3-d]pyrimidin-2-yl)oxy]ethyl}piperidin-4-yl)methyl]piperidin-1-yl}methyl)piperidin-1-yl]-1-oxo-2,3-dihydro-1H-isoindol-2-yl}piperidine-2,6-dione]",> 70,< 5.1
"C#Cc1c(F)ccc2cc(O)cc(-c3ncc4c(N5CC6CCC(C5)N6)nc(OCCN5CCC(CC6CCN(CC7CCN(c8ccc9c(c8)CN([C@@H]8CCC(=O)NC8=O)C9=O)CC7)CC6)CC5)nc4c3F)c12 [Compound 216, (3R)-3-{5-[4-({4-[(1-{2-[(4-{3,8-diazabicyclo[3.2.1]octan-3-yl}-7-(8-ethynyl-7-fluoro-3-hydroxynaphthalen-1-yl)-8-fluoropyrido[4,3-d]pyrimidin-2-yl)oxy]ethyl}piperidin-4-yl)methyl]piperidin-1-yl}methyl)piperidin-1-yl]-1-oxo-2,3-dihydro-1H-isoindol-2-yl}piperidine-2,6-dione]",> 70,< 5.1
"C#Cc1c(F)ccc2cc(O)cc(-c3ncc4c(N5CC6CCC(C5)N6)nc(OCCN5CCC(CC6CCN(CC7CCN(c8ccc9c(c8F)n(C(C)C)c(=O)n9C8CCC(=O)NC8=O)CC7)CC6)CC5)nc4c3F)c12 (centres unmarked) [Compound 217, 3-{5-[4-({4-[(1-{2-[(4-{3,8-diazabicyclo[3.2.1]octan-3-yl}-7-(8-ethynyl-7-fluoro-3-hydroxynaphthalen-1-yl)-8-fluoropyrido[4,3-d]pyrimidin-2-yl)oxy]ethyl}piperidin-4-yl)methyl]piperidin-1-yl}methyl)piperidin-1-yl]-4-fluoro-2-oxo-3-(propan-2-yl)-2,3-dihydro-1H-1,3-benzodiazol-1-yl}piperidine-2,6-dione]",> 70,< 5.1
"C#Cc1c(F)ccc2cc(O)cc(-c3ncc4c(N5CC6CCC(C5)N6)nc(OCCN5CCC6(CC5)CCN(CC5CCN(c7ccc8c(c7)n(C)c(=O)n8C7CCC(=O)NC7=O)CC5)CC6)nc4c3F)c12 (centres unmarked) [Compound 218, 3-(5-{4-[(9-{2-[(4-{3,8-diazabicyclo[3.2.1]octan-3-yl}-7-(8-ethynyl-7-fluoro-3-hydroxynaphthalen-1-yl)-8-fluoropyrido[4,3-d]pyrimidin-2-yl)oxy]ethyl}-3,9-diazaspiro[5.5]undecan-3-yl)methyl]piperidin-1-yl}-3-methyl-2-oxo-2,3-dihydro-1H-1,3-benzodiazol-1-yl)piperidine-2,6-dione]",> 70,< 5.1
"C#Cc1c(F)ccc2cc(O)cc(-c3ncc4c(N5CC6CCC(C5)N6)nc(OCCN5CCC(CN6CCN(CC7CCN(c8ccc9c(c8Cl)CN(C8CCC(=O)NC8=O)C9=O)CC7)CC6)CC5)nc4c3F)c12 (centres unmarked) [Compound 219, 3-[4-chloro-5-[4-[[4-[[1-[2-[4-(3,8-diazabicyclo[3.2.1]octan-3-yl)-7-(8-ethynyl-7-fluoro-3-hydroxy-1-naphthyl)-8-fluoro-pyrido[4,3-d]pyrimidin-2-yl]oxyethyl]-4-piperidyl]methyl]piperazin-1-yl]methyl]-1-piperidyl]-1-oxo-isoindolin-2-yl]piperidine-2,6-dione]",> 70,< 5.1
"C#Cc1c(F)ccc2cc(O)cc(-c3ncc4c(N5CC6CCC(C5)N6)nc(OCCN5CCC6(CC5)CCN(CC5CCN(c7ccc8c(c7Cl)CN(C7CCC(=O)NC7=O)C8=O)CC5)CC6)nc4c3F)c12 (centres unmarked) [Compound 220, 3-(4-chloro-5-{4-[(9-{2-[(4-{3,8-diazabicyclo[3.2.1]octan-3-yl}-7-(8-ethynyl-7-fluoro-3-hydroxynaphthalen-1-yl)-8-fluoropyrido[4,3-d]pyrimidin-2-yl)oxy]ethyl}-3,9-diazaspiro[5.5]undecan-3-yl)methyl]piperidin-1-yl}-1-oxo-2,3-dihydro-1H-isoindol-2-yl)piperidine-2,6-dione]",> 70,< 5.1
"C#Cc1c(F)ccc2cc(O)cc(-c3ncc4c(N5CC6CCC(C5)N6)nc(OCCN5CCC(CN6CCN(CC7CCN(c8ccc9c(c8)n(C)c(=O)n9C8CCC(=O)NC8=O)CC7)CC6)CC5)nc4c3F)c12 (centres unmarked) [Compound 221, 3-{5-[4-({4-[(1-{2-[(4-{3,8-diazabicyclo[3.2.1]octan-3-yl}-7-(8-ethynyl-7-fluoro-3-hydroxynaphthalen-1-yl)-8-fluoropyrido[4,3-d]pyrimidin-2-yl)oxy]ethyl}piperidin-4-yl)methyl]piperazin-1-yl}methyl)piperidin-1-yl]-3-methyl-2-oxo-2,3-dihydro-1H-1,3-benzodiazol-1-yl}piperidine-2,6-dione]",> 70,< 5.1
"C#Cc1c(F)ccc2cc(O)cc(-c3ncc4c(N5CC6CCC(C5)N6)nc(OCCN5CCC(CN6CCN(CC7CCN(c8ccc9c(c8)n(C(C)C)c(=O)n9C8CCC(=O)NC8=O)CC7)CC6)CC5)nc4c3F)c12 (centres unmarked) [Compound 222, 3-{5-[4-({4-[(1-{2-[(4-{3,8-diazabicyclo[3.2.1]octan-3-yl}-7-(8-ethynyl-7-fluoro-3-hydroxynaphthalen-1-yl)-8-fluoropyrido[4,3-d]pyrimidin-2-yl)oxy]ethyl}piperidin-4-yl)methyl]piperazin-1-yl}methyl)piperidin-1-yl]-2-oxo-3-(propan-2-yl)-2,3-dihydro-1H-1,3-benzodiazol-1-yl}piperidine-2,6-dione]",> 70,< 5.1
"C#Cc1c(F)ccc2cc(O)cc(-c3ncc4c(N5CC6CCC(C5)N6)nc(OCCN5CCC(CN6CCC(CN7CCN(c8ccc9c(c8F)CN(C8CCC(=O)NC8=O)C9=O)CC7)CC6)CC5)nc4c3F)c12 (centres unmarked) [Compound 223, 3-{5-[4-({1-[(1-{2-[(4-{3,8-diazabicyclo[3.2.1]octan-3-yl}-7-(8-ethynyl-7-fluoro-3-hydroxynaphthalen-1-yl)-8-fluoropyrido[4,3-d]pyrimidin-2-yl)oxy]ethyl}piperidin-4-yl)methyl]piperidin-4-yl}methyl)piperazin-1-yl]-4-fluoro-1-oxo-2,3-dihydro-1H-isoindol-2-yl}piperidine-2,6-dione]",> 70,< 5.1
"C#Cc1c(F)ccc2cc(O)cc(-c3ncc4c(N5CC6CCC(C5)N6)nc(OC[C@@H]5C[C@@H](OC6CCN(CC7CCN(c8ccc9c(c8F)n(C(C)C)c(=O)n9C8CCC(=O)NC8=O)CC7)CC6)CN5C)nc4c3F)c12 (stereo partly drawn) [Compound 224, 3-(5-{4-[(4-{[(3R,5S)-5-{[(4-{3,8-diazabicyclo[3.2.1]octan-3-yl}-7-(8-ethynyl-7-fluoro-3-hydroxynaphthalen-1-yl)-8-fluoropyrido[4,3-d]pyrimidin-2-yl)oxy]methyl}-1-methylpyrrolidin-3-yl]oxy}piperidin-1-yl)methyl]piperidin-1-yl}-4-fluoro-2-oxo-3-(propan-2-yl)-2,3-dihydro-1H-1,3-benzodiazol-1-yl)piperidine-2,6-dione]",> 70,< 5.1
C#Cc1c(F)ccc2cc(O)cc(-c3ccc4c(N5CC6CCC(C5)N6)nc(OCCN5CCN(CC6CCN(CC7CCN(c8ccc9c(c8)n(C)c(=O)n9C8CCC(=O)NC8=O)CC7)CC6)CC5(C)C)nc4c3F)c12 (centres unmarked) [Compound 227],,< 5.1
"C#Cc1c(F)ccc2cccc(-c3ncc4c(N5CC6CCC(C5)N6)nc(OCC5(CN6CCC(F)(CN7CCN(c8ccc9c(c8)n(C)c(=O)n9C8CCC(=O)NC8=O)CC7)CC6)CC5)nc4c3F)c12 (centres unmarked) [Compound 228, 3-[5-[4-[[1-[[1-[[4-(3,8-diazabicyclo[3.2.1]octan-3-yl)-7-(8-ethynyl-7-fluoro-1-naphthyl)-8-fluoro-pyrido[4,3-d]pyrimidin-2-yl]oxymethyl]cyclopropyl]methyl]-4-fluoro-4-piperidyl]methyl]piperazin-1-yl]-3-methyl-2-oxo-benzimidazol-1-yl]piperidine-2,6-dione]",,< 5.1
"C#Cc1c(F)ccc2cc(O)cc(-c3ncc4c(N5CC6CCC(C5)N6)nc(OCC5(CN6CCC(CC7CCN(CC8CN(c9ccc%10c(c9)n(C)c(=O)n%10C9CCC(=O)NC9=O)C8)CC7)CC6)CC5)nc4c3F)c12 (centres unmarked) [Compound 229, 3-[5-[3-[[4-[[1-[[1-[[4-(3,8-diazabicyclo[3.2.1]octan-3-yl)-7-(8-ethynyl-7-fluoro-3-hydroxy-1-naphthyl)-8-fluoro-pyrido[4,3-d]pyrimidin-2-yl]oxymethyl]cyclopropyl]methyl]-4-piperidyl]methyl]-1-piperidyl]methyl]azetidin-1-yl]-3-methyl-2-oxo-benzimidazol-1-yl]piperidine-2,6-dione]",> 70,< 5.1
"C#Cc1c(F)ccc2cc(O)cc(-c3ncc4c(N5CC6CCC(C5)N6)nc(CCCN5CCC(CC6CCN(CC7CCN(c8ccc9c(c8)n(C)c(=O)n9C8CCC(=O)NC8=O)CC7)CC6)CC5)nc4c3F)c12 (centres unmarked) [Compound 230, 3-[5-[4-[[4-[[1-[3-[4-(3,8-diazabicyclo[3.2.1]octan-3-yl)-7-(8-ethynyl-7-fluoro-3-hydroxy-1-naphthyl)-8-fluoro-pyrido[4,3-d]pyrimidin-2-yl]propyl]-4-piperidyl]methyl]-1-piperidyl]methyl]-1-piperidyl]-3-methyl-2-oxo-benzimidazol-1-yl]piperidine-2,6-dione]",,< 5.1
C#Cc1c(F)ccc2cc(O)cc(-c3ccc4c(N5CC6CCC(C5)N6)nc(OCCN5CCC(CN6CCC(CC7CCN(c8ccc9c(c8F)n(C)c(=O)n9C8CCC(=O)NC8=O)CC7)CC6)CC5)nc4c3F)c12 (centres unmarked) [Compound 231],> 70,< 5.1
C#Cc1c(F)ccc2cc(O)cc(-c3ccc4c(N5CC6CCC(C5)N6)nc(OCCN5CCC(CC6CCN(CC7CCN(c8ccc9c(c8F)n(C)c(=O)n9C8CCC(=O)NC8=O)CC7)CC6)CC5)nc4c3F)c12 (centres unmarked) [Compound 232],> 70,< 5.1
